Experimental findings from ChEMBL document CHEMBL1137327, “Optimization of chromone-2-carboxamide melanin concentrating hormone receptor 1 antagonists: assessment of potency, efficacy, and cardiovascular safety” (J Med Chem, 2006) are described below.

In series [1] the test system is Rattus norvegicus. Nature of the series: Drug level in anesthetized Sprague-Dawley rat plasma. It is filed as ADME, organism-based. To be noted: in vivo.
For series [2], the system named is Rattus norvegicus. Nature of the series: Drug level in anesthetized Sprague-Dawley rat brain. It is filed as ADME, organism-based. The conditions noted are these: in vivo.
The nature of series [3]: Cmax in C57BL/6J DIO mouse plasma at 10 mg/kg, po. It is filed as ADME, organism-based. Set-up: dose 10 mg/kg, route oral. The conditions noted are these: read-out: Cp.
The nature of series [4]: Half life in C57BL/6J DIO mouse plasma at 10 mg/kg, po. It is filed as ADME, organism-based. Set-up: dose 10 mg/kg, route oral.
A short description of series [5]: AUC in C57BL/6J DIO mouse plasma at 10 mg/kg, po. In kind it is ADME, organism-based. Set-up: dose 10 mg/kg, route oral.
The nature of series [6]: Cmax in C57BL/6J DIO mouse brain at 10 mg/kg, po. In kind it is ADME, organism-based. Set-up: dose 10 mg/kg, route oral.
Series [7] can be described thus: Half life in C57BL/6J DIO mouse brain at 10 mg/kg, po. It is filed as ADME, organism-based. Set-up: dose 10 mg/kg, route oral.
The subject of series [8] is Mus musculus. Nature of the series: AUC in C57BL/6J DIO mouse brain at 10 mg/kg, po. In kind it is ADME, organism-based. Set-up: dose 10 mg/kg, route oral. To be noted: in vivo.
Series [9] in a line: Ratio of AUC in brain to plasma of C57BL/6J DIO mouse at 10 mg/kg, po. In kind it is ADME, organism-based. Set-up: dose 10 mg/kg, route oral. To be noted: brain and plasma, read-out: Ratio AUC.
Series [10] concerns Mus musculus. Nature of the series: Decrease in body weight of C57BL/6J DIO mouse at 3 mg/kg, po after 22 days relative to control. It is filed as functional. Set-up: scale not given: the % may be the effect or the level left.
Series [11] has as its system Mus musculus. Put plainly: Decrease in body weight of C57BL/6J DIO mouse at 10 mg/kg, po after 22 days relative to control. It is filed as functional. Set-up: scale not given: the % may be the effect or the level left.
The nature of series [12]: Drug level in C57BL/6J DIO mouse plasma at 3 mg/kg, po after 22 days. Set-up: dose 3 mg/kg, route oral. It is filed as ADME, organism-based.
The nature of series [13]: Drug level in C57BL/6J DIO mouse plasma at 10 mg/kg, po after 22 days. It is filed as ADME, organism-based. Set-up: dose 10 mg/kg, route oral.
A short description of series [14]: Drug level in C57BL/6J DIO mouse brain at 3 mg/kg, po after 22 days. Set-up: dose 3 mg/kg, route oral. It is filed as ADME, organism-based. To be noted: read-out: Drug uptake.
Series [15] is described as follows: Drug level in C57BL/6J DIO mouse brain at 10 mg/kg, po after 22 days. It is filed as ADME, organism-based. Set-up: dose 10 mg/kg, route oral. The conditions noted are these: read-out: Drug uptake.
Series [16] is described as follows: Drug level in anasthetized Beagle dog plasma at 3 mg/kg, iv after 30 mins. It is filed as ADME, organism-based, Canis lupus familiaris. Set-up: dose 3 mg/kg, route intravenous.
Series [17] in a line: Drug level in anasthetized Beagle dog plasma at 10 mg/kg, iv after 30 mins. Set-up: dose 10 mg/kg, route intravenous. It is filed as ADME, organism-based, Canis lupus familiaris.
A short description of series [18]: Drug level in anasthetized Beagle dog plasma at 30 mg/kg, iv after 30 mins. Set-up: dose 30 mg/kg, route intravenous. In kind it is ADME, organism-based, Canis lupus familiaris.
For series [19], the species on record is Canis familiaris. Put plainly: Decrease in heart rate in anasthetized Beagle dog at 10.94 ug/ml relative to control. It is filed as functional, Canis lupus familiaris. Set-up: scale not given: the % may be the effect or the level left.
For series [20], the species on record is Canis familiaris. Nature of the series: Decrease in heart rate in anasthetized Beagle dog at 36.13 ug/ml relative to control. It is filed as functional, Canis lupus familiaris. Set-up: scale not given: the % may be the effect or the level left.

As to `O=C(NC1CCN(Cc2ccc3c(c2)OCO3)CC1)c1cc(=O)c2ccc(F)cc2o1`, in the series with Rattus norvegicus [1], the Cp is 62000 ng/mL. The compound also yielded a Drug uptake with Rattus norvegicus [2] of 126 µg/g. The Cmax in series [3] was 1780 ng/mL; in series [6], 4370 ng/g. The half-life in series [4] is 2.5 h; in series [7], 2.4 h. Also, the AUC came to 9290 ng·h/mL in series [5] and 12658 ng·h/g in the series on Mus musculus [8]. Also, in [9], the Kp worked out at 1.4. Further, the Activity with Mus musculus [10] was 0%; in the series with Mus musculus [11] it was 7%; in the series filed under Canis familiaris [19], 22%; in the series listed under Canis familiaris [20], 11%. In addition, the concentration at 528 h in [12] was found to be 840 ng/mL; in series [13] it was 3270 ng/mL; in [14] it was 1110 ng/g; in series [15], 4670 ng/g. The concentration at 0.5 h in series [16] is 5.9 µM; in series [17], 25.8 µM; in [18], 85.1 µM.
